Test results reported in publication PMC8129498, “Synthesis, Antitumor and Antiviral In Vitro Activities of New Benzotriazole-Dicarboxamide Derivatives” (Frontiers in Chemistry, 2021).

How the values were obtained:
CCRF-CEM = assay: Antiproliferative assay (MTT), CCRF-CEM; format: cell-based, human; settings: for CC50: Homo sapiens, CCRF-CEM, 96 h, read-out: CC50 CCRF-CEM
Protocol: (§1) Cell lines were purchased from American Type Culture Collection (ATCC). The absence of mycoplasma contamination was checked periodically by the Hoechst staining method. Exponentially growing leukemia and lymphoma cells were seeded at 1 × 10^5 cells/ml in 96 well plates in RPMI-1640 medium, supplemented with 10% fetal bovine serum, 100 units/ml penicillin G, and 100 μg/ml streptomycin, and incubated at 37°C in a humidified, 5% CO2 atmosphere in the absence or presence of serial dilutions of test compounds. Cell viability was determined after 96 h at 37°C by the 3-(4,5-dimethylthiazol-2-yl)-2,5-diphenyl-tetrazolium bromide (MTT) method. Activity against solid-tumor derived cells was evaluated in exponentially growing cultures seeded at 5 × 10^4 cells/ml and allowed to adhere for 16 h to culture plates before the addition of the drugs. Cell viability was determined by the MTT method 4 days later. Vincristine and doxorubicin were used as reference drugs.
(§2) The extent of cell growth/viability and viral multiplication, at each drug concentration tested, were expressed as percentage of untreated controls. Concentrations resulting in 50% inhibition (CC50 or EC50) were determined by linear regression analysis.

WIL-2NS = assay: Antiproliferative assay (MTT), WIL-2NS; format: cell-based; settings: Homo sapiens, WIL2-NS, 96 h, read-out: CC50 WIL-2NS
Protocol: as §1, §2

CCRF-SB = assay: Antiproliferative assay (MTT), CCRF-SB; format: cell-based; settings: Homo sapiens, 96 h, read-out: CC50 CCRF-SB
Protocol: as §1, §2

SK-MEL28 = assay: Antiproliferative assay (MTT), SK-MEL28; format: cell-based; settings: Homo sapiens, SK-MEL-28, 96 h, read-out: CC50 SK-MEL28
Protocol: as §1, §2

SK-MES1 = assay: Antiproliferative assay (MTT), SK-MES1; format: cell-based; settings: Homo sapiens, SK-MES-1, 96 h, read-out: CC50 SK-MES1
Protocol: as §1, §2

DU145 = assay: Antiproliferative assay (MTT), DU145; format: cell-based; settings: Homo sapiens, DU-145, 96 h, read-out: CC50 DU145
Protocol: as §1, §2

HeLa = assay: Antiproliferative assay (MTT), HeLa; format: cell-based; settings: Homo sapiens, 96 h, read-out: CC50 HeLa
Protocol: as §1, §2

[1] = Antiproliferative assay (MTT), CRL 7065 control fibroblasts; format: cell-based, human; settings: MTT; human foreskin fibroblasts, non-tumor control; read-out: CC50 CRL 7065
Protocol: as §1, §2

[2] = Cytotoxicity in Vero-76 cell-line (MTT); format: cell-based; settings: monkey (Cercopithecus aethiops), Vero-76 cells (mock-infected), mock-infected Vero-76 cells
Protocol: Vero-76 cells were seeded in 96-well plates at an initial density of 5 × 10^5 cells/ml, in Dulbecco’s Modified Eagle Medium (D-MEM) with L-glutamine and 25 mg/L kanamycin, supplemented with 10% FBS. Cell cultures were then incubated at 37°C in a humidified and 5% CO2 atmosphere, in the absence or presence of serial dilutions of test compounds. The test medium used for the cytotoxic assay as well as for antiviral assay contained 1% of the appropriate serum. Cell viability was determined after 48–96 h at 37°C by MTT method for Vero-76 ([Pauwels et al., 1988]).
as §2

[3] = tested on: Coxsackievirus B5 (CV-B5); assay: Plaque reduction assay, CV-B5 in Vero-76 monolayers; format: cell-based; settings: Enterovirus B
Poliovirus type-1 (Sb-1) = assay: microbe, parasite or virus in culture; format: cell-based; settings: Enterovirus C, Vero 76, read-out: EC50, plaque reduction Sb-1

Row | Structure (SMILES) | CC50 (CCRF-CEM) [µM] | selectivity index (SI) (CCRF-CEM; ratio of CC50 of non-tumor cells (CRL 7065) and CC50 of tumor cells (CCRF-CEM)) | CC50 (WIL-2NS) [µM] | CC50 (CCRF-SB) [µM] | CC50 (SK-MEL28) [µM] | CC50 (SK-MES1) [µM] | CC50 (DU145) [µM] | CC50 (HeLa) [µM] | CC50 at 96 h [1] [µM] | melting point [°C] | CC50 [2] [µM] | EC50 [3] [µM] | EC50 (Poliovirus type-1 (Sb-1)) [µM]
1 | O=C(/C=C/C(=O)Nc1ccc(-n2nnc3cc(Cl)c(Cl)cc32)cc1)Nc1ccc(-n2nnc3cc(Cl)c(Cl)cc32)cc1 [Compound 3d, N ^1 ,N ^4-Bis(4-(5,6-Dichloro-1H-Benzo[d][1,2,3]Triazol-1-yl)phenyl)fumaramide] | 0.07 ± 0.02 | 5.3 | > 100 | 7.9 ± 0.9 | > 100 | > 100 | > 100 | > 100 | 0.37 ± 0.04 | > 300 |  |  | 
2 | O=C(O)/C=C/C(=O)Nc1ccc(-n2nnc3cc(Cl)c(Cl)cc32)cc1 [Compound 4d, (E)-4-((4-(5,6-Dichloro-1H-Benzo[d][1,2,3]Triazol-1-yl)phenyl)amino)-4-oxobut-2-enoic Acid] | 3.3 ± 1.7 |  | 64 ± 10 | 0.51 ± 0.13 | > 100 | > 100 | > 100 | > 100 | 1.7 ± 0.1 | 231 to 233 | > 100 | 10 | > 100
3 | O=C(CCCC(=O)Nc1ccc(Cn2nnc3cc(Cl)c(Cl)cc32)cc1)Nc1ccc(Cn2nnc3cc(Cl)c(Cl)cc32)cc1 [Compound 9b, N ^1,N ^5-Bis(4-((5,6-Dichloro-1H-Benzo[d][1,2,3]Triazol-1-yl)methyl)phenyl)Glutaramide] | 5.5 ± 1.8 |  | 23 ± 7 | 8.5 ± 3.2 | 2.6 ± 0.7 | 9.9 ± 3.1 | 5.2 ± 0.4 | 5.4 ± 0.7 | 6.7 ± 2.4 | 204 to 206 | 75 | 52 | > 75
4 | CC[C@]1(O)C[C@H]2CN(CCc3c([nH]c4ccccc34)[C@@](C(=O)OC)(c3cc4c(cc3OC)N(C=O)[C@H]3[C@@](O)(C(=O)OC)[C@H](OC(C)=O)[C@]5(CC)C=CCN6CC[C@]43[C@@H]65)C2)C1 [Vincristine, reference compound] | 0.003 ± 0.001 |  | 0.006 ± 0.002 | 0.003 ± 0.001 | > 4 | 0.01 ± 0.02 | 0.02 ± 0.01 | 0.05 ± 0.02 | > 4 |  |  |  | 
